Legend:
Type in all cases: cell-based
[1] = system: OVCAR-3 (ovarian cancer); assay: NCI-60 SRB cytotoxicity screen; settings: Homo sapiens; OVCAR-3, single dose 10 μM; read-out: growth inhibition (GI%)
[2] = system: SF-268 (CNS cancer); assay: NCI-60 SRB cytotoxicity screen; settings: Homo sapiens; SF-268, single dose 10 μM; read-out: growth inhibition (GI%)
[3] = system: EKVX (non-small cell lung cancer); assay: NCI-60 SRB cytotoxicity screen; settings: Homo sapiens, single dose 10 μM, read-out: growth inhibition (GI%)
[4] = system: HT29 (colon cancer); assay: NCI-60 SRB cytotoxicity screen; settings: Homo sapiens, HT-29; HT29, single dose 10 μM; read-out: growth inhibition (GI%)
[5] = system: SR (leukemia); assay: NCI-60 SRB cytotoxicity screen; settings: single dose 10 μM, read-out: growth inhibition (GI%)
[6] = system: MCF7 (breast cancer); assay: NCI-60 SRB cytotoxicity screen; settings: Homo sapiens; MCF7, single dose 10 μM; read-out: growth inhibition (GI%)
[7] = system: MDA-MB-468 (breast cancer); assay: NCI-60 SRB cytotoxicity screen; settings: Homo sapiens; MDA-MB-468, single dose 10 μM; read-out: growth inhibition (GI%)
Method: (§1) The cytotoxic activity of the synthesized quinoline derivatives was determined by the national cancer institute (NCI, Bethesda, Maryland, USA) against 60 different cancer cell lines at a single high dose (10^−5 M) in the full NCI 60 cell panel using the sulforhodamine B assay for cell viability evaluation. In summary, 5 × 10^3 cells were in 96-well plate and incubated in complete media for 24 h. Cells were treated with 100 μL of media containing each newly synthesized compound. After drug exposure, cells were fixed by replacing media with 150 μL of 10% TCA and incubated at 4 °C for 1 h. The TCA solution was removed, and the cells were washed 5 times with distilled water. Aliquots of 70 μL SRB solution (0.4% w/v) were added and incubated in a dark place at room temperature for 10 min. The plates were washed 3 times with 1% acetic acid and allowed to air-dry overnight. Then, 150 μL of TRIS (10 mM) was added to dissolve protein-bound SRB stain. The absorbance was measured at 540 nm.% Cytotoxicity = [1 − (AVx/AVNC)] × 100where AVx denotes the average absorbance of the sample well and AVNC denotes the average absorbance of the negative control.
The methodology of the NCI anticancer screening has been described in details at (http://www.dtp.nci.nih.gov). The anticancer assay was performed in full NCI 60 cell lines derived from nine tumor subpanels, including leukemia, lung, colon, CNS, melanoma, ovarian, renal, prostate, and breast cancer cell lines.
The cell lines were first cultured for 48 h, after being exposed to a single dosage of the compound. Using the protein-binding dye sulforhodamine B dye, cell proliferation and viability were evaluated (SRB assay). The results were presented for each chemical as GI%. Compound that met NCI criteria for substantial activity were further evaluated using a five-dose experiment. The NCI60 cell lines were treated with the chemicals in this assay at five different concentration levels (0.01, 0.1, 1, 10, and 100 μM).

[8] = system: CCRF-CEM (leukemia); assay: NCI-60 SRB cytotoxicity screen; settings: Homo sapiens, single dose 10 μM, read-out: growth inhibition (GI%)
[9] = system: T-47D (breast cancer); assay: NCI-60 SRB cytotoxicity screen; settings: Homo sapiens, T47D, single dose 10 μM, read-out: growth inhibition (GI%)
[10] = system: OVCAR-5 (ovarian cancer); assay: NCI-60 SRB cytotoxicity screen; settings: Homo sapiens; OVCAR-5, single dose 10 μM; read-out: growth inhibition (GI%)
[11] = system: OVCAR-4 (ovarian cancer); assay: NCI-60 SRB cytotoxicity screen; settings: Homo sapiens; OVCAR-4, single dose 10 μM; read-out: growth inhibition (GI%)
[12] = system: SK-OV-3 (ovarian cancer); assay: NCI-60 SRB cytotoxicity screen; settings: Homo sapiens; SK-OV-3, single dose 10 μM; read-out: growth inhibition (GI%)
[13] = system: SW-620 (colon cancer); assay: NCI-60 SRB cytotoxicity screen; settings: Homo sapiens; SW-620, single dose 10 μM; read-out: growth inhibition (GI%)
[14] = system: NCI/ADR-RES (ovarian cancer); assay: NCI-60 SRB cytotoxicity screen; settings: Homo sapiens, single dose 10 μM, read-out: growth inhibition (GI%)
[15] = system: BT-549 (breast cancer); assay: NCI-60 SRB cytotoxicity screen; settings: Homo sapiens; BT-549, single dose 10 μM; read-out: growth inhibition (GI%)
[16] = system: MOLT-4 (leukemia); assay: NCI-60 SRB cytotoxicity screen; settings: Homo sapiens; MOLT-4, single dose 10 μM; read-out: growth inhibition (GI%)
[17] = system: SF-295 (CNS cancer); assay: NCI-60 SRB cytotoxicity screen; settings: Homo sapiens; SF-295, single dose 10 μM; read-out: growth inhibition (GI%)
[18] = system: UACC-257 (melanoma); assay: NCI-60 SRB cytotoxicity screen; settings: Homo sapiens; UACC-257, single dose 10 μM; read-out: growth inhibition (GI%)
[19] = system: MALME-3M (melanoma); assay: NCI-60 SRB cytotoxicity screen; settings: Homo sapiens, single dose 10 μM, read-out: growth inhibition (GI%)
[20] = system: HCT-15 (colon cancer); assay: NCI-60 SRB cytotoxicity screen; settings: Homo sapiens; HCT-15, single dose 10 μM; read-out: growth inhibition (GI%)
[21] = system: IGROV1 (ovarian cancer); assay: NCI-60 SRB cytotoxicity screen; settings: Homo sapiens, IGROV-1; IGROV1, single dose 10 μM; read-out: growth inhibition (GI%)
[22] = system: RXF 393 (renal cancer); assay: NCI-60 SRB cytotoxicity screen; settings: Homo sapiens; RXF 393, single dose 10 μM; read-out: growth inhibition (GI%)
[23] = system: SF-539 (CNS cancer); assay: NCI-60 SRB cytotoxicity screen; settings: Homo sapiens; SF-539, single dose 10 μM; read-out: growth inhibition (GI%)
[24] = system: MDA-MB-231/ATCC (breast cancer); assay: NCI-60 SRB cytotoxicity screen; settings: Homo sapiens, MDA-MB-231, read-out: growth inhibition (GI%);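 further: growth inhibition in percent at a single 10 µM dose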
[25] = system: SNB-19 (CNS cancer); assay: NCI-60 SRB cytotoxicity screen; settings: Homo sapiens; SNB-19, single dose 10 μM; read-out: growth inhibition (GI%)
[26] = system: 60 cancer cell lines (NCI); assay: NCI-60 single-dose screen, overall verdict over the panel; settings: single dose 10 μM, whole panel
Method: as §1

Structure (SMILES) | inhibition at 10 µM [2] [%] | inhibition at 10 µM [3] [%] | inhibition at 10 µM [6] [%] | inhibition at 10 µM [8] [%] | inhibition at 10 µM [9] [%] | inhibition at 10 µM [10] [%] | inhibition at 10 µM [11] [%] | inhibition at 10 µM [12] [%] | inhibition at 10 µM [13] [%] | inhibition at 10 µM [14] [%] | inhibition at 10 µM [15] [%] | inhibition at 10 µM [16] [%] | inhibition at 10 µM [17] [%] | inhibition at 10 µM [18] [%] | inhibition at 10 µM [19] [%] | inhibition at 10 µM [20] [%] | inhibition at 10 µM [21] [%] | inhibition at 10 µM [22] [%] | inhibition at 10 µM [23] [%] | inhibition at 10 µM [24] [%] | also measured
CCc1cccc2cc(C=CC(=O)c3cc(OC)c(OC)c(OC)c3)c(Cl)nc12 [Compound 3c, 3-(2-Chloro-8-ethylquinolin-3-yl)-1-(3,4,5-trimethoxyphenyl)prop-2-en-1-one] | 32.2 | 17.1 | 70.9 | 87.8 | 72.8 | 26.8 | 42 | 17.4 | 65.4 | 67.6 | 76.1 | 49.9 | 31.3 | 43.6 | 14.8 | 44.5 | < 10 | 42.6 | > 100 | 39.5 | inhibition at 10 µM [1]: > 100%; inhibition at 10 µM [4]: 77.4%; inhibition at 10 µM [5]: 61.5%; inhibition at 10 µM [7]: 61.1%; inhibition at 10 µM [25]: 66.4%
CCc1cccc2cc(-c3cc(-c4ccc(OC)cc4)[nH]c(=O)c3C#N)c(Cl)nc12 [Compound 4a, 4-(2-Chloro-8-ethylquinolin-3-yl)-6-(4-methoxyphenyl)-2-oxo-1,2-dihydropyridine-3-carbonitrile] | 21.4 | 12.3 | 16 | < 10 | 17.1 | < 10 | 21.9 | < 10 | < 10 | < 10 | 15.3 | 11.9 | 16.7 | < 10 | < 10 | < 10 | < 10 | < 10 | < 10 | 10 | inhibition at 10 µM [1]: < 10%; inhibition at 10 µM [4]: < 10%; inhibition at 10 µM [5]: < 10%; inhibition at 10 µM [7]: 14%; inhibition at 10 µM [25]: < 10%
CCc1cccc2cc(-c3cc(-c4ccc(F)cc4)[nH]c(=O)c3C#N)c(Cl)nc12 [Compound 4d, 4-(2-Chloro-8-ethylquinolin-3-yl)-6-(4-fluorophenyl)-2-oxo-1,2-dihydropyridine-3-carbonitrile] | < 10 | < 10 | 24.6 | < 10 | 14.4 | < 10 | 11 | < 10 | < 10 | < 10 | 17.8 | 15 | < 10 | < 10 | < 10 | 11.1 | < 10 | < 10 | < 10 | 19.9 | inhibition at 10 µM [1]: < 10%; cytotoxic activity over the cell lines (in words) [26]: mild cytotoxic activity; inhibition at 10 µM [7]: < 10%; inhibition at 10 µM [25]: < 10%
CCc1cccc2cc(-c3cc(-c4cc(OC)c(OC)c(OC)c4)[nH]c(=S)c3C#N)c(Cl)nc12 [Compound 5c, 4-(2-Chloro-8-ethylquinolin-3-yl)-2-thioxo-6-(3,4,5-trimethoxyphenyl)-1,2-dihydropyridine-3-carbonitrile] | 31.7 | 34.9 | 46.5 | 57.6 | 60.6 | < 10 | 41.6 | < 10 | 10 | 28.5 | 21.1 | 61.2 | 31 | 20.1 | < 10 | 29 | 33.4 | 37.3 | 29.7 | 52.5 | inhibition at 10 µM [1]: 16.9%; inhibition at 10 µM [4]: 20.4%; inhibition at 10 µM [5]: 49%; inhibition at 10 µM [7]: 50.5%; inhibition at 10 µM [25]: 39.1%
CCc1cccc2cc(-c3cc(-c4ccc(F)cc4)[nH]c(=S)c3C#N)c(Cl)nc12 [Compound 5d, 4-(2-Chloro-8-ethylquinolin-3-yl)-6-(4-fluorophenyl)-2-thioxo-1,2-dihydropyridine-3-carbonitrile] | 21 | 19.6 | 40.4 | < 10 | 21.1 | < 10 | 13.3 | 20.9 | < 10 | < 10 | 12.2 | 26.8 | 12.3 | < 10 | < 10 | 14.8 | 28.6 | < 10 | < 10 | 31.2 | inhibition at 10 µM [4]: < 10%; cytotoxic activity over the cell lines (in words) [26]: slight cytotoxic activity; inhibition at 10 µM [7]: 14%; inhibition at 10 µM [25]: 10.5%
CCc1cccc2cc(C3C=C(c4ccc(F)cc4)NC(=S)N3)c(Cl)nc12 (stereo not drawn) [Compound 6d, 4-(2-Chloro-8-ethylquinolin-3-yl)-6-(4-fluorophenyl)-3,4-dihydropyrimidine-2(1H)-thione] | 14.9 | < 10 | 24.6 | < 10 | 23.9 | < 10 | 21 | < 10 | < 10 | 17 | < 10 | 48.8 | < 10 | < 10 | < 10 | 26.2 | < 10 | < 10 | < 10 | < 10 | inhibition at 10 µM [1]: < 10%; inhibition at 10 µM [4]: 28.3%; cytotoxic activity over the cell lines (in words) [26]: limited cytotoxic activity; inhibition at 10 µM [25]: < 10%
